# Reference: a melting point compilation (Tetko et al.; mined from patent text by program, amines drawn as free bases though some values may be those of a salt)
row,SMILES,melting point
1,FC(F)(F)c1cc(CN2CCc3cc(OC[C@H]4CO[C@](Cn5ccnc5)(c5ccc(Cl)cc5Cl)O4)ccc3C2)ccc1Cl (racemic),107 to 108 °C
2,O=C(O)c1c(Cc2cc3c(cc2Cl)OCO3)c(-c2ccccn2)nn1CC1CCCCC1,238 °C
3,O=C(O)Cc1c(C(=O)c2ccccc2)[nH]c2ccc(Cl)c(Cl)c12,206 to 210 °C
4,CN1C(=O)c2cccnc2Nc2cc(C(F)(F)F)ccc21,169 to 172 °C
5,CC(C)[C@@H]1OC(=O)N[C@@H]1C(=O)OCc1ccccc1,99 to 101 °C
6,CN1CC(c2nccc(CCc3ccccc3)n2)=C(O)C1=O,118 to 119 °C
7,Cc1ccc(Cl)cc1N1C(=O)CN=C1SCc1ccccc1,140 to 142 °C
8,O=C(Nc1cccc(C(F)(F)F)c1)C1C(=O)C2CCC(C2)C1=O (configuration not stated),68 to 69 °C
9,CCn1cc(C(=O)NCc2ccc(Cl)cc2)c(=O)c2cc(CO)sc21,169 to 172 °C
10,N#CCCCCc1csc(NC(=N)N)n1,104 to 105 °C
11,COC(=O)C(OC)(OC)C(=O)Nc1ccc(Br)cc1C,99 to 103 °C
12,Cc1oc(-c2ccccc2)nc1COc1ccc(CCOS(C)(=O)=O)cc1,66 to 67 °C
13,O=C(CCc1cc(-c2ccccc2)nc2ccccc12)N1CCCCC1,110 °C
14,O=C(c1cccnc1Cl)N1CCN=C1Cc1ccccc1Cl,128 to 130 °C
15,CCCC(=O)/C=C/c1cn(-c2ccccc2)nc1OCc1ccc(OCc2nc(-c3ccco3)oc2C)c(OC)c1,167 to 168 °C
16,Cc1nn(C(C)C(=O)N(C)C)c(C)c1-c1ccccc1 (configuration not stated),122 to 124 °C
17,CCCCC(=O)c1c(-c2ccc3cc(OCC(=O)O)ccc3c2)oc2ccccc12,130 to 132 °C
18,CCc1cn(Cc2ccccc2)c(=O)[nH]c1=O,154 to 155 °C
19,COc1ccc2c(c1)c(=O)oc(=O)n2-c1ccc(OCc2ccccc2)cc1,155 °C
20,COC(=O)c1ccc(-c2ccc3cc(C(=O)OCc4ccccc4)c(C45CC6CC(CC(C6)C4)C5)cc3c2)cc1,143 to 144 °C
21,CC(C)(C)C1=C(c2cc3cc(O)ccc3s2)OCC1(C)C,196 °C

row,SMILES,melting point
1,Cc1cc2ccncc2c(=N)c2ccccc12,165 to 168 °C
2,Cc1ccc2c(c1)c(-c1ccc(F)cc1)c(Cl)n2C1CCN(CCN2CCN(C(C)C)C2=O)CC1,127 to 130 °C
3,CC=CCn1c(C)c(C)c2cnnc(OCc3c(Cl)cccc3Cl)c21,133 to 140 °C
4,CCOC(=O)c1cc2c3c(ccc2[nH]1)OC[C@H](CO)O3,152 to 153 °C
5,O=C1COCC2CCCN12 (configuration not stated),63.5 to 66 °C
6,CNC(=O)ON=C1N=C(C)C(C)(CC(C)C)S1 (configuration not stated),99 to 101 °C
7,CCCCCCC(=N)NC(=S)Nc1ccc(F)cc1,75 to 76 °C
8,COC(=O)N1CCc2onc(OC)c2C1,58 to 60 °C
9,Cc1c(-c2ccc(O)cc2)n(Cc2ccc(OCCN3CC4(C)CC3CC(C)(C)C4)cc2)c2ccc(O)cc12 (configuration not stated),98 to 100 °C
10,COCOc1ccc(C=O)c(Cl)c1OCc1ccccc1,66 to 67 °C
11,C1=C(c2c[nH]c3ccccc23)CCN(CCCOc2cccc3[nH]ccc23)C1,192 to 194 °C
12,Brc1ccc(C=Cc2ccc(Br)cc2)cc1,213 °C
13,OCCCc1ccc(O)cc1,52 to 54 °C
14,OCC1OC(n2c(Cl)nc3cc(Br)c(Br)cc32)C(O)C1O (configuration not stated),126 to 129 °C
15,CCCCCCCCCCCCCCCNC(=O)OCCOCCOC(=O)N(Cc1ccccn1)C(=O)OCC,52 to 53 °C
16,Cc1nccc2[nH]c(=O)c(C(=O)NN)cc12,> 310 °C
17,Cc1cn(C2CC(O)C(C(O)I)O2)c(=O)[nH]c1=O (configuration not stated),172 to 175 °C
18,C=CCOc1cc2c(cc1Br)CC[C@H]2CCNC(=O)CC,86 to 87 °C
19,Cn1cc(C(=O)O)c(=O)c2cc(F)c(N3CCNCC3)cc21,310 °C
20,Cc1cc(OC(=S)N(C)C)c(C(C)(C)C)cc1C=O,79.5 to 81 °C
21,Cc1noc(NS(=O)(=O)c2ccccc2-c2ccc(CC(C)C)cc2NC=O)c1C,87 to 95 °C
